Where only a bound is given, the exact number is not on record here.

Among the data in US20250011311A1, “AMIDO HETEROAROMATIC COMPOUNDS” (AstraZeneca AB, priority 2022, published 2025) are IC50 values, retold here.

Test [1] deals with recombinant 17bHSD4 (M1-N311) (Homo sapiens (Human), UniProt P51659). The experiment in a line: In Vitro 17bHSD4 Enzyme Assay. Type of test: biochemical. As to conditions: 40 nM 17bHSD4, 0.125 mM NAD, 15 μM Estradiol, 1.5 h; NADH fluorescence; read-out: 17HSD17b4 Enzyme assay IC50.
For test [2], the target named is recombinant 17bHSD13 (N2-K300) (Homo sapiens (Human), UniProt Q7Z5P4). The experiment in a line: In Vitro 17bHSD13 Enzyme Assay. The test is classed as biochemical. The conditions noted are these: 80 nM 17bHSD13, 0.5 mM NAD, 20 μM Estradiol, 2.5 h; estradiol to estrone by LC-MS/MS. In short, it runs like this: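 Human 17bHSD13 (N2-K300, 80 nM) with 0.5 mM NAD, 20 μM estradiol and varied compound in 50 mM Tris-Cl pH 7.4, 5 mM EDTA, 0.01% DDM. Estrone/(estrone+estradiol) ratio read by LC-MS/MS (APCI, positive MRM). Inhibition normalised to DMSO and a known-inhibitor control; IC50 from curve fit.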
Sequence of recombinant 17bHSD13 (N2-K300) (Q7Z5P4 2-300): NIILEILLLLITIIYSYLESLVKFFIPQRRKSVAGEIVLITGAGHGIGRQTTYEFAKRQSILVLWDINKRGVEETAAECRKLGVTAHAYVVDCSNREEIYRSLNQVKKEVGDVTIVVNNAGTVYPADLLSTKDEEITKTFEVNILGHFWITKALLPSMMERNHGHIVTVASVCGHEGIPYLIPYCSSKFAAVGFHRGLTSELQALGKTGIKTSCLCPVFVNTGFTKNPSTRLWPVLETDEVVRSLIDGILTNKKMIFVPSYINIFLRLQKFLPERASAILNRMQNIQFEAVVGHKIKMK

Sequence of recombinant 17bHSD4 (M1-N311) (P51659 1-311): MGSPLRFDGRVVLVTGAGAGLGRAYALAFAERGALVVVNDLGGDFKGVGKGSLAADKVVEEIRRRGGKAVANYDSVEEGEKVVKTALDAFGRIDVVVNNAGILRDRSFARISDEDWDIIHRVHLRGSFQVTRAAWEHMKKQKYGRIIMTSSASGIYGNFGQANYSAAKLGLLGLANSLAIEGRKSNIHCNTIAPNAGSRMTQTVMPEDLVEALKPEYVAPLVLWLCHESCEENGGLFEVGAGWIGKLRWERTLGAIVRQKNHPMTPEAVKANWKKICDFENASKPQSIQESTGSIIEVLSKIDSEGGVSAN

Turning to `O=C(c1noc(-c2cc(F)c(F)c(O)c2F)n1)N1CCN(CCOc2ccc(Br)cn2)CC1` [Example 69, (4-(2-((5-Bromopyridin-2-yl)oxy)ethyl)piperazin-1-yl)(5-(2,4,5-trifluoro-3-hydroxyphenyl)-1,2,4-oxadiazol-3-yl)methanone], the results for the half-inhibitory concentration (IC50) in test [1] and in test [2] were 48700 nM and 131 nM, respectively.
For `N#Cc1ccc2c(c1)CN(C(=O)c1noc(-c3cc(F)c(F)c(O)c3F)c1C#N)CC2` [Example 29, 3-(7-Cyano-1,2,3,4-tetrahydroisoquinoline-2-carbonyl)-5-(2,4,5-trifluoro-3-hydroxyphenyl)isoxazole-4-carbonitrile], the results for the concentration for half-maximal inhibition (IC50) in test [1] and in test [2] were 17600 nM and 157 nM, respectively.
Regarding `O=C(c1noc(-c2cc(C(F)(F)F)[nH]c(=O)c2)n1)N1CCC(c2ccccc2)C1` (centres unmarked) [Example 9, 4-(3-(3-Phenylpyrrolidine-1-carbonyl)-1,2,4-oxadiazol-5-yl)-6-(trifluoromethyl)pyridin-2(1H)-one], the half-inhibitory concentration (IC50) (in general, the point on the concentration scale where inhibition reaches its midpoint) in test [1] is over 50000 nM; in test [2], 422 nM.
Consider `O=C(c1noc(-c2cc(F)c(F)c(O)c2F)n1)N1CC[C@@H](Oc2ccccc2)C1` [Example 98, (R)-(3-Phenoxypyrrolidin-1-yl)(5-(2,4,5-trifluoro-3-hydroxyphenyl)-1,2,4-oxadiazol-3-yl)methanone], for which the concentration for half-maximal inhibition (IC50) was found to be 9500 nM in test [1] and 63 nM in test [2].
For `O=C(c1noc(-c2cc(F)c(F)c(O)c2F)n1)N1CCN(CCCOc2ccc(F)cc2)CC1` [Example 57, (4-(3-(4-Fluorophenoxy)propyl)piperazin-1-yl)(5-(2,4,5-trifluoro-3-hydroxyphenyl)-1,2,4-oxadiazol-3-yl)methanone], in that order: 32300 nM and 88 nM.
`O=C(c1noc(-c2cc(F)c(F)c(O)c2F)n1)N1CC[C@H](Oc2ccccc2)C1` [Example 93, (S)-(3-Phenoxypyrrolidin-1-yl)(5-(2,4,5-trifluoro-3-hydroxyphenyl)-1,2,4-oxadiazol-3-yl)methanone]: the IC50 in test [1] is 22200 nM; in test [2], 63 nM.
Regarding `O=C(c1noc(-c2cc(F)c(F)c(O)c2F)n1)N1CCOC2CCCC21` (centres unmarked) [Example 41, (Hexahydrocyclopenta[b][1,4]oxazin-4(4aH)-yl)(5-(2,4,5-trifluoro-3-hydroxyphenyl)-1,2,4-oxadiazol-3-yl)methanone], the half-maximal inhibitory concentration (IC50) is over 50000 nM in test [1] and 82 nM in test [2].
The matching figures for `O=C(c1noc(-c2cc(F)c(F)c(O)c2F)n1)N1CCO[C@H]2CCC[C@H]21` [Example 112, ((4aR,7aS)-Hexahydrocyclopenta[b][1,4]oxazin-4(4aH)-yl)(5-(2,4,5-trifluoro-3-hydroxyphenyl)-1,2,4-oxadiazol-3-yl)methanone]: over 50000 nM and 197 nM.
Take `O=C(c1noc(-c2cc(F)c(F)c(O)c2F)n1)N1CCCC(OCc2ccccc2)C1` (centres unmarked) [Example 94, (3-(Benzyloxy)piperidin-1-yl)(5-(2,4,5-trifluoro-3-hydroxyphenyl)-1,2,4-oxadiazol-3-yl)methanone]: the results for the IC50 in test [1] and in test [2] were 23600 nM and 48 nM, respectively.
For the compound `N#Cc1cccc2c1CCN(C(=O)c1noc(-c3c(F)c(O)c(F)c(F)c3I)n1)C2` [Example 109, 2-(5-(2,4,5-Trifluoro-3-hydroxy-6-iodophenyl)-1,2,4-oxadiazole-3-carbonyl)-1,2,3,4-tetrahydroisoquinoline-5-carbonitrile], the results for the IC50 in test [1] and in test [2] were 11700 nM and 46 nM, respectively.
For the compound `C[C@@H]1CN(C(=O)c2noc(-c3cc(F)c(F)c(O)c3F)n2)C[C@@H](C)O1` [Example 88, ((2R,6R)-2,6-Dimethylmorpholino)(5-(2,4,5-trifluoro-3-hydroxyphenyl)-1,2,4-oxadiazol-3-yl)methanone], the half-inhibitory concentration (IC50) in test [1] is 36400 nM; in test [2], 468 nM.
As for `C[C@@H]1CN(C(=O)c2noc(-c3cc(F)c(F)c(O)c3F)n2)[C@H](C)CO1` [Example 50, ((2R,5R)-2,5-Dimethylmorpholino)(5-(2,4,5-trifluoro-3-hydroxyphenyl)-1,2,4-oxadiazol-3-yl)methanone], the IC50 in test [1] was over 50000 nM; in test [2], 499 nM.
As for `C[C@@H]1CN(C(=O)c2noc(-c3cc(F)c(F)c(O)c3F)n2)C[C@H](C)N1` [Example 119, ((3R,5S)-3,5-Dimethylpiperazin-1-yl)(5-(2,4,5-trifluoro-3-hydroxyphenyl)-1,2,4-oxadiazol-3-yl)methanone], the IC50 in test [1] was over 50000 nM; in test [2] it was 1740 nM.
Turning to `C[C@@H]1CN(C(=O)c2noc(-c3cc(F)c(F)c(O)c3F)c2C#N)C[C@H](C)O1` [Example 22, 3-((2R,6S)-2,6-Dimethylmorpholine-4-carbonyl)-5-(2,4,5-trifluoro-3-hydroxyphenyl)isoxazole-4-carbonitrile], the IC50 in test [1] was over 50000 nM; in test [2] it was 532 nM.
In the case of `C[C@@H]1CN(C(=O)c2noc(-c3c(F)c(O)c(F)c(F)c3I)n2)C[C@H](C)O1` [Example 108, ((2S,6R)-2,6-Dimethylmorpholino)(5-(2,4,5-trifluoro-3-hydroxy-6-iodophenyl)-1,2,4-oxadiazol-3-yl)methanone], the IC50 was over 50000 nM in test [1] and 80 nM in test [2].
Take `O=C(c1noc(-c2cc(F)c(F)c(O)c2F)n1)N1CCOC2(CC2)C1` [Example 118, (4-Oxa-7-azaspiro[2.5]octan-7-yl)(5-(2,4,5-trifluoro-3-hydroxyphenyl)-1,2,4-oxadiazol-3-yl)methanone]: the IC50 in test [1] was over 50000 nM; in test [2] it was 1080 nM.
As for `N#Cc1cccc2c1CCN(C(=O)c1noc(-c3c(F)c(O)c(F)c(F)c3Br)n1)C2` [Example 30, 2-(5-(2-Bromo-3,4,6-trifluoro-5-hydroxyphenyl)-1,2,4-oxadiazole-3-carbonyl)-1,2,3,4-tetrahydroisoquinoline-5-carbonitrile], the values for the IC50 in test [1] and in test [2] were 17200 nM and 61 nM, respectively.
On to `O=C(c1noc(-c2cc(F)c(F)c(O)c2F)n1)N1CC[C@H](c2ccc(Cl)cc2)C1` [Example 95, (R)-(3-(4-Chlorophenyl)pyrrolidin-1-yl)(5-(2,4,5-trifluoro-3-hydroxyphenyl)-1,2,4-oxadiazol-3-yl)methanone], for which the concentration for half-maximal inhibition (IC50) stood at 6900 nM in test [1] and 53 nM in test [2].
`O=C(c1noc(-c2cc(F)c(F)c(O)c2F)n1)N1CC2CCC(C1)C2(F)F` [Example 43, (8,8-difluoro-3-azabicyclo[3.2.1]octan-3-yl)(5-(2,4,5-trifluoro-3-hydroxyphenyl)-1,2,4-oxadiazol-3-yl)methanone]: the IC50 in test [1] amounted to 39000 nM; in test [2], 339 nM.
As to `O=C(c1ccc(-c2cc(F)c(F)c(O)c2F)s1)N1CC[C@H](c2ccccc2)C1` [Example 33, (R)-(3-Phenylpyrrolidin-1-yl)(5-(2,4,5-trifluoro-3-hydroxyphenyl)thiophen-2-yl)methanone], the concentration for half-maximal inhibition (IC50) is 8500 nM in test [1] and 34 nM in test [2].
Take `N#Cc1ccc2c(c1)CCN(C(=O)c1noc(-c3cc(F)c(F)c(O)c3F)n1)C2` [Example 31, 2-(5-(2,4,5-Trifluoro-3-hydroxyphenyl)-1,2,4-oxadiazole-3-carbonyl)-1,2,3,4-tetrahydroisoquinoline-6-carbonitrile]: the concentration for half-maximal inhibition (IC50) in test [1] stood at 11500 nM; in test [2], 165 nM.
For `COc1cccc(N2CCN(C(=O)c3noc(-c4cc(F)c(F)c(O)c4F)c3C#N)CC2)c1` [Example 16, 3-(4-(3-Methoxyphenyl)piperazine-1-carbonyl)-5-(2,4,5-trifluoro-3-hydroxyphenyl)isoxazole-4-carbonitrile], the IC50 was determined as 15400 nM in test [1] and 137 nM in test [2].
With `O=C(Nc1ccnn1C1CCCCC1)c1cc(-c2ccc(F)c(O)c2)on1` [Example 99, N-(1-Cyclohexyl-1H-pyrazol-5-yl)-5-(4-fluoro-3-hydroxyphenyl)isoxazole-3-carboxamide], the values for the IC50 in test [1] and in test [2] were 41800 nM and 114 nM, respectively.
As for `O=C(c1noc(-c2cc(F)c(F)c(O)c2F)n1)N1CC(Oc2ccccc2)C1` [Example 2, (3-Phenoxyazetidin-1-yl)(5-(2,4,5-trifluoro-3-hydroxyphenyl)-1,2,4-oxadiazol-3-yl)methanone], the figures for the 50% inhibitory concentration (IC50) in test [1] and in test [2] were 6700 nM and 75 nM, respectively.
Turning to `N#Cc1c(C(=O)N2Cc3ccc(F)cc3C2)noc1-c1cc(F)c(F)c(O)c1F` [Example 18, 3-(5-Fluoroisoindoline-2-carbonyl)-5-(2,4,5-trifluoro-3-hydroxyphenyl)isoxazole-4-carbonitrile], the half-maximal inhibitory concentration (IC50) was 17800 nM in test [1] and 80 nM in test [2].
For `O=C(c1noc(-c2cc(F)c(F)c(O)c2F)n1)N1CC(c2ccc(F)cc2)C1` [Example 74, (3-(4-Fluorophenyl)azetidin-1-yl)(5-(2,4,5-trifluoro-3-hydroxyphenyl)-1,2,4-oxadiazol-3-yl)methanone], in that order: 21100 nM and 89 nM.
The matching figures for `CCCC1CCN(C(=O)c2noc(-c3cc(F)c(F)c(O)c3F)n2)C1` (centres unmarked) [Example 76, (3-Propylpyrrolidin-1-yl)(5-(2,4,5-trifluoro-3-hydroxyphenyl)-1,2,4-oxadiazol-3-yl)methanone]: 44800 nM and 128 nM.
The matching figures for `CC1(C)CN(C(=O)c2noc(-c3cc(F)c(F)c(O)c3F)n2)CC(C)(C)O1` [Example 32, (2,2,6,6-Tetramethylmorpholino)(5-(2,4,5-trifluoro-3-hydroxyphenyl)-1,2,4-oxadiazol-3-yl)methanone]: over 50000 nM and 159 nM.
